The first experiment relates to HCT-116 cell line. In words: Inhibition of cell growth, tetrazolium salt (MTT) assay. It counts as cell-based. The settings on record: Homo sapiens, HCT-116, 120 h, first HCT-116 column (c4); MTT, three to five days; read-out: HCT-116 IC50. As for the experimental part:
Inhibition of Cell Growth: Assessment of Cytotoxicity:
Inhibition of cell growth was measured using the tetrazolium salt assay, which is based on the ability of viable cells to reduce 3-(4,5-dimethylthiazol-2-yl)-2,5-[2H]-diphenyltetrazolium bromide (MTT) to formazan (Mossman, Journal of Immunological Methods, vol. 65 (1983), pp. 55-58). The water-insoluble purple formazan product was then detected spectrophotometrically. The HCT-116 cell line was used as a representative cancer cell line and grown in 96-well plates. Cells were plated in McCoy's 5A Medium at a volume of 135 μl/well. Plates were incubated for four hours before addition of inhibitor compounds. Different concentrations of inhibitor compounds were added in 0.5% (v/v) dimethylsulfoxide (15 μLuwell), and cells were incubated at 37° C. (5% CO2) for three to five days. At the end of the incubation, MTT was added to a final concentration of 0.2 mg/mL, and cells were incubated for 4 hours more at 37° C. After centrifugation of the plates and removal of medium, the absorbance of the formazan (solubilized in dimethylsulfoxide) was measured at 540 nm. […] All results were compared to control cells treated only with 0.5% (v/v) dimethylsulfoxide.
`CC(C)(C)CNCCS(=O)(=O)N1CCC(Nc2nc(N)c(C(=O)c3c(F)cccc3F)s2)CC1` [Example K51, (4-Amino-2-{1-[2-(2,2-dimethyl-propylamino)-ethanesulfonyl]-piperidin-4-ylamino}-thiazol-5-yl)-(2,6-difluoro-phenyl)-methanone]: the IC50 (in general, the concentration that gives 50% inhibition) was 170 nM.
Same read-out and setting: the same measure for `Nc1nc(NC2CCN(S(=O)(=O)CCNCc3ccccc3)CC2)sc1C(=O)c1c(F)cccc1F` [Example K48]: 170 nM; for `CC(C)(NCCS(=O)(=O)N1CCC(Nc2nc(N)c(C(=O)c3c(F)cccc3F)s2)CC1)c1ccccc1` [Example K49, (4-Amino-2-{1-[2-(1-methyl-1-phenyl-ethylamino)-ethanesulfonyl]-piperidin-4-ylamino}-thiazol-5-yl)-(2,6-difluoro-phenyl)-methanone]: 180 nM.

Still in this experiment, the particulars now being: Homo sapiens, HCT-116, 120 h, second HCT-116 column (c5); MTT, three to five days; read-out: HCT-116 IC50.
For `CC(C)(C)CNCCS(=O)(=O)N1CCC(Nc2nc(N)c(C(=O)c3c(F)cccc3F)s2)CC1` [Example K51, (4-Amino-2-{1-[2-(2,2-dimethyl-propylamino)-ethanesulfonyl]-piperidin-4-ylamino}-thiazol-5-yl)-(2,6-difluoro-phenyl)-methanone], the IC50 came to 500 nM.
The same measure, in the same setting: next, `Nc1nc(NC2CCN(S(=O)(=O)CCNCc3ccccc3)CC2)sc1C(=O)c1c(F)cccc1F` [Example K48]: 500 nM.
As to `CC(C)(NCCS(=O)(=O)N1CCC(Nc2nc(N)c(C(=O)c3c(F)cccc3F)s2)CC1)c1ccccc1` [Example K49, (4-Amino-2-{1-[2-(1-methyl-1-phenyl-ethylamino)-ethanesulfonyl]-piperidin-4-ylamino}-thiazol-5-yl)-(2,6-difluoro-phenyl)-methanone], the IC50 is 500 nM.

The same experiment, now with this note: Homo sapiens, HCT-116, HCT116 cells; compound at 250 nM; read-out: % Inhibition HCT116 @ 250 nM.
With `Nc1nc(NC2CCN(S(=O)(=O)CCNCC(O)c3ccccc3)CC2)sc1C(=O)c1c(F)cccc1F` (stereo not drawn) [Example S109], the inhibition (as a rule, how much of the control response was suppressed) at 0.25 µM is 19%.
Same read-out and setting: next, `CC(CCCC(C)(C)O)NCCS(=O)(=O)N1CCC(Nc2nc(N)c(C(=O)c3c(F)cccc3F)s2)CC1` (stereo not drawn) [Example S162]: 22%.
Same read-out and setting: the same measure for `Nc1nc(NC2CCN(S(=O)(=O)CCN(CCO)CCO)CC2)sc1C(=O)c1c(F)cccc1F` [Example S6]: 13%; for `CC(C)(C)NCCS(=O)(=O)N1CCC(Nc2nc(N)c(C(=O)c3c(F)cccc3F)s2)CC1` [Example S81]: 82%.
In the case of `CCOC(=O)CC(C)NCCS(=O)(=O)N1CCC(Nc2nc(N)c(C(=O)c3c(F)cccc3F)s2)CC1` (stereo not drawn) [Example S91], the inhibition at 0.25 µM was 10%.
As for `NC(=O)C1CCN(CCS(=O)(=O)N2CCC(Nc3nc(N)c(C(=O)c4c(F)cccc4F)s3)CC2)CC1` [Example S48], the inhibition at 0.25 µM was 17%.
The same measure, in the same setting: the same measure for `Nc1nc(NC2CCN(S(=O)(=O)CCNCCOCCO)CC2)sc1C(=O)c1c(F)cccc1F` [Example S147]: 23%; for `Nc1nc(NC2CCN(S(=O)(=O)CCN3CCCC(O)C3)CC2)sc1C(=O)c1c(F)cccc1F` (stereo not drawn) [Example S39]: 14%; for `Nc1nc(NC2CCN(S(=O)(=O)CCNCCc3ccc(O)cc3)CC2)sc1C(=O)c1c(F)cccc1F` [Example S117]: 86%.
With `CC(C)OCCNCCS(=O)(=O)N1CCC(Nc2nc(N)c(C(=O)c3c(F)cccc3F)s2)CC1` [Example S166], the inhibition at 0.25 µM came out at 9%.
Same read-out and setting: next, `Nc1nc(NC2CCN(S(=O)(=O)CCN3CCCCC3CO)CC2)sc1C(=O)c1c(F)cccc1F` (stereo not drawn) [Example S13]: 24%; `Nc1nc(NC2CCN(S(=O)(=O)CCN3CCC(O)C3)CC2)sc1C(=O)c1c(F)cccc1F` (stereo not drawn) [Example S18]: 14%; `COc1ccc(CNCCS(=O)(=O)N2CCC(Nc3nc(N)c(C(=O)c4c(F)cccc4F)s3)CC2)cc1` [Example S104]: 31%.
Still for that read-out and setting: the same measure for `Nc1nc(NC2CCN(S(=O)(=O)CCNCCN3CCOCC3)CC2)sc1C(=O)c1c(F)cccc1F` [Example S87]: 13%; for `Nc1nc(NC2CCN(S(=O)(=O)CCNCc3ccc(F)c(F)c3)CC2)sc1C(=O)c1c(F)cccc1F` [Example S127]: 60%.
On the same count and under the same terms, next, `CC(C)(NCCS(=O)(=O)N1CCC(Nc2nc(N)c(C(=O)c3c(F)cccc3F)s2)CC1)c1ccccc1` [Example S173]: 35%; `COC[C@@H]1CCCN1CCS(=O)(=O)N1CCC(Nc2nc(N)c(C(=O)c3c(F)cccc3F)s2)CC1` [Example S42]: 12%.
For `Cc1ccc(CNCCS(=O)(=O)N2CCC(Nc3nc(N)c(C(=O)c4c(F)cccc4F)s3)CC2)c(C)c1` [Example S137], the inhibition at 0.25 µM worked out at 43%.
`Nc1nc(NC2CCN(S(=O)(=O)CCNC3Cc4ccccc4C3)CC2)sc1C(=O)c1c(F)cccc1F` [Example S161]: the inhibition at 0.25 µM is 45%.
Still for that read-out and setting: next, `CCN(CC)CCN(CC)CCS(=O)(=O)N1CCC(Nc2nc(N)c(C(=O)c3c(F)cccc3F)s2)CC1` [Example S43]: 13%.
On to `Nc1nc(NC2CCN(S(=O)(=O)CCNCc3cccc(Cl)c3)CC2)sc1C(=O)c1c(F)cccc1F` [Example S142], for which the inhibition at 0.25 µM came to 80%.
The same measure, in the same setting: next, `C=CCN(CC=C)CCS(=O)(=O)N1CCC(Nc2nc(N)c(C(=O)c3c(F)cccc3F)s2)CC1` [Example S32]: 69%.
On the same count and under the same terms, the same measure for `CC(C)(C)N(CCO)CCS(=O)(=O)N1CCC(Nc2nc(N)c(C(=O)c3c(F)cccc3F)s2)CC1` [Example S3]: 25%; for `N#CCCNCCS(=O)(=O)N1CCC(Nc2nc(N)c(C(=O)c3c(F)cccc3F)s2)CC1` [Example S132]: 20%.
On the same count and under the same terms, the same measure for `CCN(CCS(=O)(=O)N1CCC(Nc2nc(N)c(C(=O)c3c(F)cccc3F)s2)CC1)C1CCCCC1` [Example S10]: 62%; for `CC(CNCCS(=O)(=O)N1CCC(Nc2nc(N)c(C(=O)c3c(F)cccc3F)s2)CC1)N(C)C` (stereo not drawn) [Example S131]: 17%; for `CSCCNCCS(=O)(=O)N1CCC(Nc2nc(N)c(C(=O)c3c(F)cccc3F)s2)CC1` [Example S133]: 18%.
In the case of `Nc1nc(NC2CCN(S(=O)(=O)CCN3CCC[C@@H]3CO)CC2)sc1C(=O)c1c(F)cccc1F` [Example S54], the inhibition at 0.25 µM was found to be 16%.
The same measure, in the same setting: the same measure for `Nc1nc(NC2CCN(S(=O)(=O)CCNCc3ccc(F)cc3)CC2)sc1C(=O)c1c(F)cccc1F` [Example S102]: 57%.
Same read-out and setting: the same measure for `NC(=O)[C@@H]1CCCN1CCS(=O)(=O)N1CCC(Nc2nc(N)c(C(=O)c3c(F)cccc3F)s2)CC1` [Example S20]: 18%; for `CN(C)C(=O)[C@H]1CCCN1CCS(=O)(=O)N1CCC(Nc2nc(N)c(C(=O)c3c(F)cccc3F)s2)CC1` [Example S66]: 14%.
Regarding `CC(NCCS(=O)(=O)N1CCC(Nc2nc(N)c(C(=O)c3c(F)cccc3F)s2)CC1)c1ccccc1` (stereo not drawn) [Example S78], the inhibition at 0.25 µM came to 49%.
`Nc1nc(NC2CCN(S(=O)(=O)CCNCC3CCCCC3)CC2)sc1C(=O)c1c(F)cccc1F` [Example S67]: the inhibition at 0.25 µM was found to be 40%.
As for `Cc1ccc(CCNCCS(=O)(=O)N2CCC(Nc3nc(N)c(C(=O)c4c(F)cccc4F)s3)CC2)cc1` [Example S118], the inhibition at 0.25 µM came to 25%.
Same read-out and setting: next, `Nc1nc(NC2CCN(S(=O)(=O)CCNCCc3cnc[nH]3)CC2)sc1C(=O)c1c(F)cccc1F` [Example S75]: 12%; `Nc1nc(NC2CCN(S(=O)(=O)CCNCc3cccs3)CC2)sc1C(=O)c1c(F)cccc1F` [Example S88]: 28%; `CC(CN(C)C)NCCS(=O)(=O)N1CCC(Nc2nc(N)c(C(=O)c3c(F)cccc3F)s2)CC1` (stereo not drawn) [Example S130]: 20%.
Turning to `COCCN(CCOC)CCS(=O)(=O)N1CCC(Nc2nc(N)c(C(=O)c3c(F)cccc3F)s2)CC1` [Example S46], the inhibition at 0.25 µM came to 58%.
The same measure, in the same setting: the same measure for `CC(C)(C)CCNCCS(=O)(=O)N1CCC(Nc2nc(N)c(C(=O)c3c(F)cccc3F)s2)CC1` [Example S121]: 20%; for `CN(C)[C@H]1CCN(CCS(=O)(=O)N2CCC(Nc3nc(N)c(C(=O)c4c(F)cccc4F)s3)CC2)C1` [Example S61]: 8%; for `CN(CCc1ccccn1)CCS(=O)(=O)N1CCC(Nc2nc(N)c(C(=O)c3c(F)cccc3F)s2)CC1` [Example S26]: 17%.
On to `Nc1nc(NC2CCN(S(=O)(=O)CCNCc3cccc(F)c3)CC2)sc1C(=O)c1c(F)cccc1F` [Example S99], for which the inhibition at 0.25 µM was found to be 43%.
As for `Nc1nc(NC2CCN(S(=O)(=O)CCNCC(=O)NO)CC2)sc1C(=O)c1c(F)cccc1F` [Example S168], the inhibition at 0.25 µM came to 16%.
Still for that read-out and setting: next, `Nc1nc(NC2CCN(S(=O)(=O)CCNC3CCCCC3)CC2)sc1C(=O)c1c(F)cccc1F` [Example S58]: 50%.
On the same count and under the same terms, next, `CN(CCS(=O)(=O)N1CCC(Nc2nc(N)c(C(=O)c3c(F)cccc3F)s2)CC1)CC(=O)N(C)C` [Example S55]: 7%; `CCC(CO)NCCS(=O)(=O)N1CCC(Nc2nc(N)c(C(=O)c3c(F)cccc3F)s2)CC1` (stereo not drawn) [Example S92]: 8%; `Nc1nc(NC2CCN(S(=O)(=O)CCN[C@@H]3CONC3=O)CC2)sc1C(=O)c1c(F)cccc1F` [Example S76]: 11%.
For the compound `Nc1nc(NC2CCN(S(=O)(=O)CCN3CCc4ccccc4C3)CC2)sc1C(=O)c1c(F)cccc1F` [Example S27], the inhibition at 0.25 µM came out at 27%.
As to `COC(CNCCS(=O)(=O)N1CCC(Nc2nc(N)c(C(=O)c3c(F)cccc3F)s2)CC1)OC` [Example S108], the inhibition at 0.25 µM was 16%.
Still for that read-out and setting: next, `CN1CCCN(CCS(=O)(=O)N2CCC(Nc3nc(N)c(C(=O)c4c(F)cccc4F)s3)CC2)CC1` [Example S176]: 17%; `COc1cccc(CNCCS(=O)(=O)N2CCC(Nc3nc(N)c(C(=O)c4c(F)cccc4F)s3)CC2)c1` [Example S100]: 38%.

Source of the values: patent US20050101595A1, “N-containing cycloalkyl-substituted amino-thiazole derivatives and pharmaceutical compositions for inhibiting cell proliferation and methods for their use” (PFIZER INC., priority 2003, published 2005).
